These results are taken from patent publication US20240156754A1, “POWDER COMPOSITION FOR DISINFECTION OF THE TEATS OF DAIRY ANIMALS” (KLARECO SRL, priority 2022, published 2024).

The data set can be described thus: Accelerated stability test (30° C., 65% RH, 18 weeks). The class given is physicochemical. The procedure: Accelerated stability test has been carried what to assess the quality of a test item prepared as the one in Example 7 during time, under the influence of temperature and humidity.
The test was conducted at 30° C., at 65% of relative humidity (RH), for 18 weeks.
[…], assessing: the appearance of each container (the one containing chloramine T and the one containing the excipients), appearance of the products therein, the weight loss of the products and the content of chloramine T.
Appearance of the test item and of the packaging was assessed under the lab light. Weight loss was assessed weighing each sample at T0 (WT0) and at the final time point (WTx) and compared with their initial value (%) according to the following formula:
Weight loss from initial %=[(WT0−WTx)*100]/(WT0)
The content of chloramine T was assessed as described in Example 7.

[1] abbreviates: T8 w, single determination, 30° C./65% RH.
The mark [2] stands for this setting: T18 w, single determination, 30° C./65% RH.

Where “and” joins values, the source holds several entries; their conditions need not be identical. Identical values can stand only once.

As for `Cc1ccc(S(=O)(=O)[N-]Cl)cc1.[Na+]` [Chloramine T, chloramine T], where the note is “T0, average”, the “Available Chlorine, average” value worked out at 24.53 % w/w; the “CHLORAMINE T anhydrous, average” value amounted to 97.46 % w/w; the “CHLORAMINE T tri-hydrated, average” value is reported as 78.76 % w/w. Moreover, where the note is “T0, single determination”, the “CHLORAMINE T anhydrous” value was 97.61 % w/w and 97.31 % w/w; the “CHLORAMINE T tri-hydrated” value is 78.88 % w/w and 78.64 % w/w. For the same compound, the “Available Chlorine” value (T0, single determination, chloramine T container of kit) was 24.57 % w/w and 24.49 % w/w. Moreover, under “T8 w, average, 30° C./65% RH”, the “Available Chlorine, average” value amounted to 0.18 % w/w; the “CHLORAMINE T anhydrous, average” value is 0.73 % w/w; the “CHLORAMINE T tri-hydrated, average” value is listed as 0.59 % w/w. For the same compound, under setting [1], the “Available Chlorine” value worked out at 0.18 % w/w, the “CHLORAMINE T anhydrous” value is 0.73 % w/w and the “CHLORAMINE T tri-hydrated” value is given as 0.59 % w/w. Further, where the note is “T18 w versus T0, 30° C./65% RH”, the “Tx/T0 %, Available Chlorine” value is listed as 100.4%; the “Tx/T0 %, CHLORAMINE T anhydrous” value is given as 100.4%; the “Tx/T0 %, CHLORAMINE T tri-hydrated” value is 100.4%. Further, under “T18 w, average, 30° C./65% RH”, the “Available Chlorine, average” value turned out to be 24.62 % w/w; the “CHLORAMINE T anhydrous, average” value amounted to 78.06 % w/w; the “CHLORAMINE T tri-hydrated, average” value is listed as 97.83 % w/w. Also, under setting [2], the “Available Chlorine” value was 24.59 % w/w and 24.86 % w/w; the “CHLORAMINE T anhydrous” value was 78.94 % w/w and 79.18 % w/w; the “CHLORAMINE T tri-hydrated” value is 97.68 % w/w and 97.99 % w/w. In addition, where the note is “after 18 weeks at 30° C./65% RH”, the “content of active chloramine T compared to T0” value is 100.4%. Also, the “variations in the appearance and weight” value (after 18 weeks at 30° C./65% RH, envelopes) is reported as “no significant variations”. The “appearance of the product versus T0” value (after 18 weeks at 30° C./65% RH, sealed container) is “did not present variations from T0”.
